The record followed here is US11426412B2, “Imidazo-pyridine compounds as PAD inhibitors” (JUBILANT EPIPAD LLC, priority 2017, dated 2022).

Test [1] deals with T1, PAD4 (Homo sapiens (Human), UniProt Q9UM07). Briefly: Ammonia release biochemical assay (citrullination).
Protocol: Ammonia Release Biochemical Assay
Citrullination assay was detected via ammonia release. […] The reaction was stopped after 60 min by addition of stop/detection buffer containing 50 mM EDTA, 2.6 mM of o-phthaladehyde and 2.6 mM DTT.
Test [2] concerns the target T1, PAD4. The test is described as follows: FP binding assay. The settings on record: for actively inhibiting PAD4 enzyme activity, FP Binding assay: summary of Table 1.
Protocol: Binding of compounds with PAD4 was detected by FP assay. PAD4 was diluted to 1 uM in assay buffer (100 mM HEPES, 50 mM NaCl, 1 mM DTT, 5% Glycerol and 1 mM CHAPS) and added to wells containing various concentration of compounds or DMSO vehicle (1%) in a 384 well black plate. 10 nM of fluorescein labelled probe (JPAD-00085) was added to the plate.
The mark [3] stands for this setting: read-out: NH3 release biochemical assay PAD4 IC50.
Setting [4] is: Table 1, class A, read-out: IC50 value, ammonia release biochemical assay.

T1 sequence (Q9UM07 whole entry): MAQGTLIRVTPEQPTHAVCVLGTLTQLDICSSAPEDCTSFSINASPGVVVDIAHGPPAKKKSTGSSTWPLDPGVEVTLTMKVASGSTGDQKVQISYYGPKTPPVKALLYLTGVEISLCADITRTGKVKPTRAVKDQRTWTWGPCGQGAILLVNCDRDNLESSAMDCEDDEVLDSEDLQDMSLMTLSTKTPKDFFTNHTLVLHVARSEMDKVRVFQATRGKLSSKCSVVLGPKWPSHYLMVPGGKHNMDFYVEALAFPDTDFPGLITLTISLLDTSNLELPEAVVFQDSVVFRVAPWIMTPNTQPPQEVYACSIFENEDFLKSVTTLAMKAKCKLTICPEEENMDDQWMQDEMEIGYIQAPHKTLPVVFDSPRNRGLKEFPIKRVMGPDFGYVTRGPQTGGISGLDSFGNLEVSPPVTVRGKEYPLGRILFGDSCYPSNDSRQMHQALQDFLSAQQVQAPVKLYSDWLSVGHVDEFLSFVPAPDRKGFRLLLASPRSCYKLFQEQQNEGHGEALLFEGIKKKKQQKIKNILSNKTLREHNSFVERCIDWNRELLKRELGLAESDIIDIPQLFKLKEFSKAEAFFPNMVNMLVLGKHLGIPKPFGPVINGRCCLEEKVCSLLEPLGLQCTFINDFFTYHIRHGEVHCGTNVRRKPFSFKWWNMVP

As to `Cc1cccc2cc(-c3nc4cc(C(=O)N5CCC[C@@H](N)C5)ccn4c3C)n(CC3CC3)c12` [Compound 30, (R)-(3-Aminopiperidin-1-yl)(2-(1-(cyclopropylmethyl)-7-methyl-1H-indol-2-yl)-3-methylimidazo[1,2-a]pyridin-7-yl)methanone], the IC50 in test [1] (setting [3]) and in test [2] was < 1000 nM in each case.

Regarding `Cc1c(-c2cc3ccc(F)cc3n2CC2CC2)nc2cc(C(=O)N3CCC[C@@H](N)C3)ccn12` [Compound 28, (R)-(3-Aminopiperidin-1-yl)(2-(1-(cyclopropylmethyl)-6-fluoro-1H-indol-2-yl)-3-methylimidazo[1,2-a]pyridin-7-yl)methanone], the IC50 in test [1] (setting [3]) and in test [2] was < 1000 nM each time. As to `Cc1c(-c2cc3ccccc3n2Cc2ccc(F)cc2)nc2cc(C(=O)N3CCC[C@@H](N)C3)ccn12` [Compound 13, (R)-(3-Aminopiperidin-1-yl)(2-(1-(4-fluorobenzyl)-1H-indol-2-yl)-3-methylimidazo[1,2-a]pyridin-7-yl)methanone], the IC50 is ≤ 1000 nM in test [1] (setting [4]), < 1000 nM in test [1] (setting [3]) and < 1000 nM in test [2]. The “actively inhibiting PAD4 enzyme activity, FP Binding assay” value in test [2] is recorded as “actively inhibiting PAD4 enzyme activity”. `N[C@@H]1CCCN(C(=O)c2ccn3c(-c4ccccc4)c(-c4cc5ccccc5n4CC4CC4)nc3c2)C1` [Compound 32, (R)-(3-Aminopiperidin-1-yl)(2-(1-(cyclopropylmethyl)-1H-indol-2-yl)-3-phenylimidazo[1,2-a]pyridin-7-yl)methanone]: the IC50 in test [1] (setting [3]) and in test [2] was > 10000 nM each time. As for `Cc1c(-c2cc3cccc(Cl)c3n2Cc2ccc(F)cc2)nc2cc(C(=O)N3CCC[C@@H](N)C3)ccn12` [Compound 77, (R)-(3-aminopiperidin-1-yl)(2-(7-chloro-1-(4-fluorobenzyl)-1H-indol-2-yl)-3-methylimidazo[1,2-a]pyridin-7-yl)methanone], in test [1] (setting [3]), the IC50 is < 1000 nM. In the case of `COc1cccc(Cn2c(-c3nc4cc(C(=O)N5CCC[C@@H](N)C5)ccn4c3C)cc3cc(F)c(F)cc32)c1` [Compound 55, (R)-(3-aminopiperidin-1-yl)(2-(5,6-difluoro-1-(3-methoxybenzyl)-1H-indol-2-yl)-3-methylimidazo[1,2-a]pyridin-7-yl)methanone], in test [1] (setting [3]), the 50% inhibitory concentration (IC50) was < 1000 nM. On to `Cc1c(-c2cc3ccccc3n2Cc2ccc(F)cn2)nc2cc(C(=O)N3CCC[C@@H](N)C3)ccn12` [Compound 79, (R)-(3-aminopiperidin-1-yl)(2-(1-((5-fluoropyridin-2-yl)methyl)-1H-indol-2-yl)-3-methylimidazo[1,2-a]pyridin-7-yl)methanone], for which the IC50 in test [1] (setting [3]) is < 1000 nM.

In the case of `Cc1c(-c2cc3ccccc3n2Cc2ccsc2)nc2cc(C(=O)N3CCC[C@@H](N)C3)ccn12` [Compound 36, (R)-(3-aminopiperidin-1-yl)(3-methyl-2-(1-(thiophen-3-ylmethyl)-1H-indol-2-yl)imidazo[1,2-a]pyridin-7-yl)methanone], the IC50 in test [1] (setting [3]) and in test [2] was < 1000 nM throughout. Also, the “actively inhibiting PAD4 enzyme activity, FP Binding assay” value in test [2] is listed as “actively inhibiting PAD4 enzyme activity”.

For the compound `Cc1c(-c2cc3cc(F)ccc3n2CC2CC2)nc2cc(C(=O)N3CCC[C@@H](N)C3)ccn12` [Compound 29, (R)-(3-Aminopiperidin-1-yl)(2-(1-(cyclopropylmethyl)-5-fluoro-1H-indol-2-yl)-3-methylimidazo[1,2-a]pyridin-7-yl)methanone], the IC50 in test [1] (setting [3]) and in test [2] was < 1000 nM in each case.

As to `Cc1c(-c2cc3ccccc3n2Cc2cccc(F)c2)nc2cc(C(=O)N3CCC[C@@H](N)C3)ccn12` [Compound 35, (R)-(3-aminopiperidin-1-yl)(2-(1-(3-fluorobenzyl)-1H-indol-2-yl)-3-methylimidazo[1,2-a]pyridin-7-yl)methanone], in test [1] (setting [3]), the IC50 was < 1000 nM. `Cc1c(-c2c(Br)c3ccccc3n2CC2CC2)nc2cc(C(=O)N3CCC[C@@H](N)C3)ccn12` [Compound 1, (R)-(3-Aminopiperidin-1-yl)(2-(3-bromo-1-(cyclopropylmethyl)-1H-indol-2-yl)-3-methylimidazo[1,2-a]pyridin-7-yl)methanone]: the IC50 in test [1] (setting [3]) is > 10000 nM. Consider `COc1ccc2cc(-c3nc4cc(C(=O)N5CCC[C@@H](N)C5)ccn4c3C)n(CC3CC3)c2c1` [Compound 23, (R)-(3-Aminopiperidin-1-yl)(2-(1-(cyclopropylmethyl)-6-methoxy-1H-indol-2-yl)-3-methylimidazo[1,2-a]pyridin-7-yl)methanone], for which the IC50 in test [1] (setting [3]) is < 1000 nM. Moreover, in test [2], the IC50 is < 1000 nM and the “actively inhibiting PAD4 enzyme activity, FP Binding assay” value is given as “actively inhibiting PAD4 enzyme activity”.

Turning to `Cc1c(-c2cc3ccccc3n2C)nc2cc(C(=O)N3CCC[C@@H](N)C3)ccn12` [Compound 46, (R)-(3-aminopiperidin-1-yl)(3-methyl-2-(1-methyl-1H-indol-2-yl)imidazo[1,2-a]pyridin-7-yl)methanone], the IC50 in test [1] (setting [3]) is > 10000 nM. The same measure, in the same setting: the result for `Cc1c(-c2cc3ccccc3n2CC2CC2)nc2cc(C(=O)N3CC[C@@H](N)C3)ccn12` [Compound 8, (R)-(3-Aminopyrrolidin-1-yl)(2-(1-(cyclopropylmethyl)-1H-indol-2-yl)-3-methylimidazo[1,2-a]pyridin-7-yl)methanone] reads > 10000 nM; that for `COc1ccc(Cn2c(-c3nc4cc(C(=O)N5CCC[C@@H](N)C5)ccn4c3C)cc3ccccc32)nc1` [Compound 63, (R)-(3-aminopiperidin-1-yl)(2-(1-((5-methoxypyridin-2-yl)methyl)-1H-indol-2-yl)-3-methylimidazo[1,2-a]pyridin-7-yl)methanone], < 1000 nM. The same measure, in the same setting: the result for `Cc1c(-c2cc3ccccc3n2CC2CCC2)nc2cc(C(=O)N3CCC[C@@H](N)C3)ccn12` [Compound 61, (R)-(3-aminopiperidin-1-yl)(2-(1-(cyclobutylmethyl)-1H-indol-2-yl)-3-methylimidazo[1,2-a]pyridin-7-yl)methanone] reads < 1000 nM. Regarding `COc1cc(Cn2c(-c3nc4cc(C(=O)N5CCC[C@@H](N)C5)ccn4c3C)cc3ccccc32)ccc1F` [Compound 85, (R)-(3-aminopiperidin-1-yl)(2-(1-(4-fluoro-3-methoxybenzyl)-1H-indol-2-yl)-3-methylimidazo[1,2-a]pyridin-7-yl)methanone], the IC50 was ≤ 1000 nM in test [1] (setting [4]) and < 1000 nM in test [1] (setting [3]). `CCn1c(-c2nc3cc(C(=O)N4CCC[C@@H](N)C4)ccn3c2C)cc2ccc(OC)cc21` [Compound 67, (R)-(3-aminopiperidin-1-yl)(2-(1-ethyl-6-methoxy-1H-indol-2-yl)-3-methylimidazo[1,2-a]pyridin-7-yl)methanone]: in test [1] (setting [3]), the IC50 is < 1000 nM. Take `Cc1c(-c2cc3ccc(F)cc3n2Cc2ccc(F)cc2)nc2cc(C(=O)N3CCC[C@@H](N)C3)ccn12` [Compound 54, (R)-(3-aminopiperidin-1-yl)(2-(6-fluoro-1-(4-fluorobenzyl)-1H-indol-2-yl)-3-methylimidazo[1,2-a]pyridin-7-yl)methanone]: the IC50 in test [1] (setting [3]) is < 1000 nM. As to `Cc1csc(Cn2c(-c3nc4cc(C(=O)N5CCC[C@@H](N)C5)ccn4c3C)cc3ccccc32)n1` [Compound 41, (R)-(3-aminopiperidin-1-yl)(3-methyl-2-(1-((4-methylthiazol-2-yl)methyl)-1H-indol-2-yl)imidazo[1,2-a]pyridin-7-yl)methanone], the IC50 in test [1] (setting [4]) is ≤ 1000 nM; in test [1] (setting [3]) it was < 1000 nM.
